Assay results published in patent US8067044B2, “Cosmetic compositions containing an extract of leaves of the Castanea sativa plant and cosmetic treatments” (Cognis France S.A.S., priority 2004, dated 2011).

Assays:
[1] = Anti-DPPH test (free radical scavenging); conditions: average of 2 assays
Description: 1.2 Methods and principle of this experiment: The anti-free radical (anti-FR) activity has been evaluated by chemical tests for the evaluation of the potential to scavenge free radicals R (DPPH test) and hydroxyl radicals HO. The anti-FR activity has been evaluated also by biochemical tests to address the potential for scavenging of a kind of reactive oxygen species (ROS), the so called super oxide anion (O2). […] Xanthine oxydase (XOD) is an enzyme activated during oxidative stress, this enzyme catalyses the O2 release along the degradation of hypoxanthin (HX) which has been overproduced by a disruption of energetic cell metabolism. […] Principle: DPPH (diphenylpicryl-hydrazyl) is a stable free radical which forms a purple solution. The purple solution of DPPH^o has a whitening effect due to components that act as radical-scavengers. […] The results are expressed in percent inhibition of DPPH radical against control. The aim of this test is to show an anti-free radical activity.

[2] = system: Raphanus sativus seed germination; conditions: cited from earlier work
[3] = system: strains of Gram-positive and Gram-negative bacteria; conditions: same bacterial strains; cited from earlier work
B16 melanocytes = experiment: Inhibition of melanin synthesis on B16 melanocytes; assay type: cell-based; conditions: for Rate of cellular proteins / Rate of melanin: control = 100; for rate of released melanin (comment): treated B16 melanocytes
Protocol: Aim of the experiment: to evaluate the potential of compounds to lower the melanin synthesis; the compounds have been tested on cell culture of melanocytes called B16.
• Seeding of melanocytes in growth medium • Incubation for 3 days at 37° C., CO2=5% (atmosphere: 5% carbon dioxide in air) • Exchange of the growth medium by a medium with a range of concentration of ingredients to be tested • Incubation for 3 days at 37° C., CO2=5% (atmosphere: 5% carbon dioxide in air) • Recording of Cellular levels of protein by Bradford's method • Recording of melanin by a spectrophotometric method (OD at 475 nm)

Lipoxygenase = experiment: Inhibition test on lipoxygenase (superoxide anions, luminol); assay type: biochemical
Description: (§1) 1.2 Methods and principle of this experiment: The anti-free radical (anti-FR) activity has been evaluated by chemical tests for the evaluation of the potential to scavenge free radicals R (DPPH test) and hydroxyl radicals HO. The anti-FR activity has been evaluated also by biochemical tests to address the potential for scavenging of a kind of reactive oxygen species (ROS), the so called super oxide anion (O2). The O2 originates mainly from xanthine oxydase and lipoxygenase activities. Xanthine oxydase (XOD) is an enzyme activated during oxidative stress, this enzyme catalyses the O2 release along the degradation of hypoxanthin (HX) which has been overproduced by a disruption of energetic cell metabolism.
Lipoxygenase was incubated with a specific substrate (unsaturated fatty acid) and the ingredient to be tested. Then the rate of released superoxide anions was evaluated by a luminescent probe (luminol). Caffeic acid was tested as reference ingredient.

[4] = Anti-HO test with deoxyribose (Fenton's reaction), reaction with EDTA
Description: as §1
Principle: The hydroxyl radical HO— (formed by H2O2 in presence of Fe++ with EDTA) oxidises deoxyribose (a component of DNA), then a pink compound is formed by condensation of thiobarbituric acid with oxidised form of deoxyribose. The optical density at 532 nm corresponds to the level of oxidised deoxyribose. An anti-free radical substance reacts with these radicals HO— and reduces the formation of this pink compound.
(§2) The results are expressed in percent of inhibition of HO— radical against control. The aim of this test is to show an anti-free radical activity.

[5] = Anti-HO test with deoxyribose (Fenton's reaction), reaction without EDTA
Description: as §1
[…] The optical density at 532 nm corresponds to the level of oxidised deoxyribose. An anti-free radical substance reacts with these radicals HO— and reduces the formation of this pink compound.
as §2

Xanthine oxidase = Xanthine oxidase (Homo sapiens, UniProt P47989); experiment: Inhibition test on xanthine oxidase (superoxide anion revealed by NBT); assay type: biochemical
Description: as §1
Xanthine oxydase is an enzyme induced during oxidative stress: it catabolises the puric bases (adenine, guanine) in uric acid and superoxide anions O2— dismutates spontaneously (or by the action of SOD=superoxyde dismutase) in H2O2 and O2.
A substance with an anti-free-radical-activity absorbs or destroys the O2— anion and thereby it reduces the optical density.
The results are expressed in percent of inhibition of O2— radical against control. The aim of this test is to show an anti-free radical activity.
As to the meaning of U/ml: for an enzyme, the dose is expressed in Units/ml for unity. In the other cases, it is not enzymes.

human fibroblasts = experiment: Inhibition of UVA effect on human fibroblasts (released MDA); assay type: cell-based
Protocol: Aim of the experiment: Determination of the potential of the tested ingredient to reduce negative effects of UV-A radiation on the survival rate of human fibroblasts.
• Seeding of human fibroblasts in a growth medium • Incubation for 3 days at 37° C., CO2=5% (atmosphere: 5% carbon dioxide in air) • Exchange of the growth medium by a medium with a range of concentration of ingredients to be tested • Incubation for 2 days at 37° C., CO2=5% • Exchange of the medium with ingredients by a balanced salt solution and UV-A irradiation (20 J/cm^2) • Recording of released MDA levels by spectro-fluorimetry. (MDA (malonaldialdehyde) is a product of oxidative degradation of lipids from cell membranes)

Sequence of Xanthine oxidase (P47989 whole entry, species assumed): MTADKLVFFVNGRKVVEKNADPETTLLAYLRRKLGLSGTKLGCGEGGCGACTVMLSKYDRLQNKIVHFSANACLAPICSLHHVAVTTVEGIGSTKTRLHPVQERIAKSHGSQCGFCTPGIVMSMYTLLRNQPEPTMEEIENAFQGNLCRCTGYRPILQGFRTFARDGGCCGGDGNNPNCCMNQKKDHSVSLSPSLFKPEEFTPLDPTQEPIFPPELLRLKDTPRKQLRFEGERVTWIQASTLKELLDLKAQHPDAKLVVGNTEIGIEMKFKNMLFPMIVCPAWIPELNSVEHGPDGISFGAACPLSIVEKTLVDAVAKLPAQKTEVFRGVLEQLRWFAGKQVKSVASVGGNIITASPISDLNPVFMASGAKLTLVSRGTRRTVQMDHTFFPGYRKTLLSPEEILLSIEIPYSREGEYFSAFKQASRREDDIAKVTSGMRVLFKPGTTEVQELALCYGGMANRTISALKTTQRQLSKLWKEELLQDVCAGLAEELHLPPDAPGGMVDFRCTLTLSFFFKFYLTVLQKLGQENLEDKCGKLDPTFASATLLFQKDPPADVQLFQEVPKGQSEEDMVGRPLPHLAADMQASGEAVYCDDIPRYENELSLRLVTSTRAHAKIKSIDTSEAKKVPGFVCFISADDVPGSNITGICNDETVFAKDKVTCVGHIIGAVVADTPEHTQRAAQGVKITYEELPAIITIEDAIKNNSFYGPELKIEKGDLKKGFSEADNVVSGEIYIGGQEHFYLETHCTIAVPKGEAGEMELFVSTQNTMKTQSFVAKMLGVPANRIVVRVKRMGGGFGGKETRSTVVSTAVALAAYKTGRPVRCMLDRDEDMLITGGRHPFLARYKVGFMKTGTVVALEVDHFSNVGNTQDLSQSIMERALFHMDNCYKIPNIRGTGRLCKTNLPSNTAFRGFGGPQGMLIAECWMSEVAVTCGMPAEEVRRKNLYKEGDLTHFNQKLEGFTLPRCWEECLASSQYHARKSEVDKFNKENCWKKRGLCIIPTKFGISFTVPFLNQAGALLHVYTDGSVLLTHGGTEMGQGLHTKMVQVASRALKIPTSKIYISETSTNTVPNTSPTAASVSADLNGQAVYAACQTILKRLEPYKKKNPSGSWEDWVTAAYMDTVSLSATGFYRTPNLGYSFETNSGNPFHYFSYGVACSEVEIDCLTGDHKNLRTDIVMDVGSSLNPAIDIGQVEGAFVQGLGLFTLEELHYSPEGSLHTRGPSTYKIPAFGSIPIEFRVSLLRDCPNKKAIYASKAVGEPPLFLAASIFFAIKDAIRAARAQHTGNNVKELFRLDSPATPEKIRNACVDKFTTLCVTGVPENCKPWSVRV

O=C1O[C@H]([C@@H](O)CO)C(O)=C1O [Vitamin C, ascorbic acid]
% of inhibition of DPPH radical/control ([1]; 0.0003 % (w/v)): 19% | % of inhibition of DPPH radical/control ([1]; 0.001 % (w/v)): 58% | % of inhibition of DPPH radical/control ([1]; 0.003 % (w/v)): 74% | % of inhibition of DPPH radical/control ([1]; 0.01 % (w/v)): 68%

O=c1cc(-c2ccc(O)cc2)oc2cc(O)cc(O)c12 [apigenin]
percentage of seed germination and root and epicotyl growth [2]: decrease | antibacterial activity among standards of the identified flavonoids [3]: highest activity

OC[C@H]1O[C@@H](Oc2ccc(O)cc2)[C@H](O)[C@@H](O)[C@@H]1O [arbutin]
Rate of cellular proteins (B16 melanocytes; dose 0.2 % w/v): 91 % against control | Rate of melanin (B16 melanocytes; dose 0.2 % w/v): 64 % against control | rate of released melanin (comment) (B16 melanocytes): strongly decreased

O=C(O)/C=C/c1ccc(O)c(O)c1 [caffeic acid]
% of inhibition (lipoxygenase, released superoxide anions) (Lipoxygenase; 0.00002 % (w/v)): 18% | % of inhibition (lipoxygenase, released superoxide anions) (Lipoxygenase; 0.0002 % (w/v)): 53%

O=c1cc(CO)occ1O [kojic acid]
Rate of cellular proteins (B16 melanocytes; dose 0.03 % w/v): 109 % against control | Rate of melanin (B16 melanocytes; dose 0.03 % w/v): 32 % against control | rate of released melanin (comment) (B16 melanocytes): strongly decreased

OC[C@@H](O)[C@@H](O)[C@H](O)[C@H](O)CO [mannitol]
% of inhibition of HO— radical/control ([4]; 0.06 % (w/v)): 25% | % of inhibition of HO— radical/control ([4]; 0.6 % (w/v)): 68%

c1cnc2c(c1)ccc1cccnc12 [o-phenanthroline]
% of inhibition of HO— radical/control ([5]; 0.02 % (w/v)): 42% | % of inhibition of HO— radical/control ([5]; 0.06 % (w/v)): 71%

O=c1c(O)c(-c2ccc(O)c(O)c2)oc2cc(O)cc(O)c12 [quercetin]
percentage of seed germination and root and epicotyl growth [2]: decrease | antibacterial activity among standards of the identified flavonoids [3]: highest activity

SOD: superoxyde dismutase, enzyme used as reference, dosed in U/ml
% of inhibition of O2— radical against control (Xanthine oxidase; 0.5 U/ml): 18% | % of inhibition of O2— radical against control (Xanthine oxidase; 5 U/ml): 50% | % of inhibition of O2— radical against control (Xanthine oxidase; 50 U/ml): 95% | IC50 (Xanthine oxidase; enzyme reference, Units/ml): 5 U/ml

Vitamin E
rate of released MDA from UV-A irradiated fibroblasts (comment) (human fibroblasts; UV-A irradiated human fibroblasts): strongly decreased | Rate of released MDA (human fibroblasts; dose 0.0003 % w/v, UV-A 20 J/cm2 (irradiated control = 100)): 7 % against control
